# Laboratory results as given in paper PMC10725991, “Kaempferol is a novel antiviral agent against channel catfish virus infection through blocking viral attachment and penetration in vitro” (Frontiers in Veterinary Science, 2023).
# What was measured:
# CCO cells = experiment: Compounds cytotoxicity assay (CCK-8 cell viability); format: cell-based; details: channel catfish, 72 h
# Method: The cytotoxicity effects of the selected compounds were detected in CCO cells by the cell viability assay. In brief, the CCO cells were seeded in 96-well plates and cultured to reach approximately 90% confluence in each well at 28°C. Subsequently, the monolayer cells were exposed to a maintenance medium with the tested compounds at different concentrations or DMSO for 72 h. Cell Counting Kit-8 (Beyotime, China) was used to measure the cell viability according to the manufacturer’s protocol after 72 h incubation. The optical density at 450 nm was measured using a Spark microplate reader (TECAN, Switzerland). Then, the maximum safe concentration (≥ 90% cell survived, SC90) of compounds to CCO cells was calculated according to the cell viability.
# All data were analyzed with GraphPad Prism 8.0. Viral titers were log10 transformed prior to statistical analyses. The SC90 values were calculated using probit analysis. The data are expressed as the arithmetic mean ± standard deviation (SD) and were analyzed by one-way ANOVA with multiple comparisons test. Statistical significance was defined as *p < 0.05, **p < 0.01.
# Figure 1 Cytotoxicity assay. The CCO cells were treated with 12 tested compounds with different concentrations in a 96-well plate for 72 h, and then the cell viability was measured by CCK-8. (A) Kaempferol, (B) Tannic acid, (C) P-Coumaric acid, (D) Magnolol, (E) Baicalein, (F) Genistein, (G) Mangiferin, (H) Rosmarinic acid, (I) Artemisinin, (J) Myricetin, (K) Ginkgolic acid, (L) Shikonin. Data represent mean ± SD normalized to values for DMSO treated group. The SC90 was analyzed and calculated using probit analysis. TEXT PRINTED IN THE PICTURE: (A) Kaempferol: SC90 = 47.53 μg/ml | (B) Tannic acid: SC90 = 90.02 μg/ml | (C) P-Coumaric acid: SC90 ≥500 μg/ml | (D) Magnolol: SC90 = 10.02 μg/ml | (E) Baicalein: SC90 = 29.73 μg/ml | (F) Genistein: SC90 = 13.66 μg/ml | (G) Mangiferin: SC90 ≥500 μg/ml | (H) Rosmarinic acid: SC90 = 46.37 μg/ml | (I) Artemisinin: SC90 ≥500 μg/ml | (J) Myricetin: SC90 = 346.19 μg/ml | (K) Ginkgolic acid: SC90 = 10.89 μg/ml | (L) Shikonin: SC90 = 54.44 μg/ml DOUBTS OF THE COPYIST ABOUT THIS PICTURE: All SC90 values are in small print, so 3, 5, 6, 8 and 9 are hard to tell apart / Kaempferol, SC90: 47.53 (5 or 3 uncertain) / Tannic acid, SC90: 90.02 (9 or 8 uncertain) / Baicalein, SC90: 29.73 (9 or 3 uncertain) / Genistein, SC90: 13.66 (3 and 6 uncertain) / Rosmarinic acid, SC90: 46.37 (6 and 3 uncertain) / Myricetin, SC90: 346.19 (3, 6 and 9 uncertain) / Ginkgolic acid, SC90: 10.89 (8 and 9 uncertain) / Shikonin, SC90: 54.44 (5 uncertain) / P-Coumaric acid, Mangiferin, Artemisinin, SC90: sign ≥ or >; 500 (5 uncertain)
# CCV in CCO cells = experiment: Virus penetration assay; format: cell-based, Channel catfish virus (CCV, Ictalurid herpesvirus 1); details: kaempferol 15 μg/mL, 24 h
# Method: Confluent CCO cells in 24-well plates were prechilled at 4°C, and then infected with CCV at 4°C for 1 h. After triple washing with pre-cooled PBS, the cells were treated with kaempferol (15 μg/mL) or medium at 28°C for 4 h. The compound dilutions were aspirated and the cells were rinsed with citrate buffer (pH 3.0) in order to inactivate and remove not penetrated virus. After incubated at 28°C for 24 h, the cells were collected for subsequent experiments, including RT-qPCR and viral titer.
# Measurement of viral titer was described previously ([5]). In brief, CCO cells were cultured in 96-well plates, and they were infected with 10-fold serially diluted samples that were collected previously. At 72 h post-infection, the cells were directly observed under an inverted microscope. […]
# For RT-qPCR, the total RNA was isolated from CCV-infected cells using RnaExTM (Trizol)^a reagent (GENERAY, China), and reversed transcribed applying a HiScript III RT SuperMix with gDNA wiper (Vazyme, China) following the manufacturer’s instructions. Quantitative PCR was performed with a LightCycler 96 Real-Time PCR Detection System (Roche, USA) using ChamQ Universal SYBR qPCR Master Mix (Vazyme, China) with the following cycle conditions: 95°C for 30 s, followed by 40 cycles of 95°C for 10 s and 60°C for 30 s. […] Fold changes of the selected gene vs 18 s (internal reference) were calculated by the 2^−△△Ct method. […]
compound,measurement,setting,value
O=c1c(O)c(-c2ccc(O)cc2)oc2cc(O)cc(O)c12 [Kaempferol],"SC90 (maximum safe concentration, ≥ 90% cell survived)",CCO cells,47.53 µg/mL
same,"down-regulation of viral internalization (CCV ORF 39/ORF 59, RT-qPCR) vs CCV control",CCV in CCO cells; 4 h at 28°C,more than 50%
same,"production of intracellular virus (virus titer), penetration assay",CCV in CCO cells,significantly reduced
